Test results: US20030154499A1, “Mouse unable to express functional alpha-4 integrin protein, and methods for assaying compounds or agents for alpha-4 integrin protein antagonist activity and a genetic marker for evaluating efficacy of modulators of signaling activity of a VLA-4 receptor” (priority 2001, published 2003)

Tests used:
Type in all cases: in vivo
JAB or SOCS-1 protein = test: FACS analysis of SOCS-1 (JAB) protein in spleen cells of treated EAE mice; conditions: 50 mg/kg q.d. s.c. for 14 days from day 7, FACS with C- and N-terminal antibodies, vs vehicle
Excerpt: In these experiments, EAE (experimental allergic encephalomyelitis) mice as well as KO and wt mice of the present invention were used. The EAE mouse is an animal model for Central Nervous System (CNS) autoimmune disease. It is widely used as a human Multiple Sclerosis (MS) model.
EAE mice (see protocol below) vehicle only treated and treated with IVL984 for 14 days (5 mice per group) as well as 5 alpha-4 integrin KO mice of the present invention and 4 wt mice of the same genetic background were sacrificed by cervical dislocation. The spleen was aseptically removed and placed in a 15 ml centrifuge tube containing RPMI 1640 medium with 1% FCS. The spleens were then individually meshed in a 10 cm petri dish through a sterile wire screen using a sterile rubber policeman (0.23 mm pore size screen, Thomas Scientific). The screen was washed and the cell suspension collected and transferred into a 15 ml centrifuge tube. After centrifugation at 1200 rpm for 10 minutes at 4° C., the supernatant was decanted and the red blood cells lysed with 1 ml/spleen ice-cold red blood cell lysis buffer for 1-3 minutes on ice. The supernatant was then carefully transferred into a fresh 15 ml centrifuge tube, leaving the fat pellet behind. […] The number of alive cells was determined using a hemacytometer (Hauser Scientific) and Trypan Blue (Gibco, Life Technologies) as the dye. […]

EST AA154371 = test: Taqman analysis of EST AA154371 in brain and spleen of treated EAE mice
Description: (§1) In these experiments, EAE (experimental allergic encephalomyelitis) mice were used. The EAE mouse is an animal model for Central Nervous System (CNS) autoimmune disease. It is widely used as a human Multiple Sclerosis (MS) model.
(§2) EAE mice (see protocol below) vehicle only treated and treated with IVL984 or HMR1031 for 14 days (5 mice per group) were sacrificed by cervical dislocation. The brain was aseptically removed and the RNA was prepared using a standard Trizol (Invitrogen) prep (protocol see below). The prepped RNA was run on an agarose gel to determine the quality of the RNA and quantified by UV spec analysis. Taqman analysis was performed using sequence specific primers and probes (sequence see below).
(§3) PLP139-151 peptide is dissolved in H2O:PBS (1:1) solution to a concentration 5 mg/10 ml (for 50 ug PLP per mouse) or 7.5 mg/10 ml (for 75 ug PLP per […]) and emulsified with an equal volume of CFA supplemented with 40 mg/10 ml heated-killed mycobacterium tuberculosis H37Ra. Mice are injected s.c. with 0.2 ml of peptide emulsion in the abdominal flank (0.1 ml on each side). On the same day and 72 hr later, mice are injected i.v. with 100 μl of 35 ng and 50 ng of Bordetella Pertussis toxin in saline respectively. Treatment IVL984 or HMR1031 or vehicle control only: 0.2% Hydroxypropyl Methylcellulose) started 7 days after immunization, before the first EAE symptoms appeared.
(§4) EAE mice treated with HMR1031A, 50 mg/kg, q.d., s.c. for 14 days from day 7
(§5) EAE mice treated with IVL984 50 mg/kg, q.d., s.c. for 14 days from day 7
(§6) Brain was divided into two halves and each half was placed in a sterile 1.5 ml tube. 0.5 ml TRIzol was added to each tube and the tissue was homogenized using a hand held tissue homogenizer. […]
(§7) The final pellets were briefly air dried and resuspended in nuclease-free, sterile water. […] The concentration was determined by measuring the absorbance at 260 nm.
Taqman primers were ordered for the EST with the accession number AA154371 (EST AA154371 (sequence for the EST: SEQ ID NO 21). Primers for the real time Taqman PCR studies were chosen using Primer Express software (Perkin Elmer) and synthesized by Sigma Genosys. The sequences of the forward and reverse primers were GACAGGGCTGAGGATTCGG (SEQ ID NO: 22) and […] (SEQ ID NO: 23) respectively. PCR product was run on the 4% agarose gel to confirm presence of a single band. PCR reactions were run on ABI Prizm System 7700 sequence detector (Perkin-Elmer) using CybrGreen PCR Core Reagents Kit (Perkin-Elmer) according to the manufacturer's protocol. […] The results were normalized to 18S and expressed as logarithm base 2 of copy number difference with18S RNA levels. […]

EST AA571535 = test: Taqman analysis of EST AA571535 in brain and spleen of treated EAE mice
Description: as §1, §2
as §3, with “respectively.” for “respectively. Treatment IVL984 or HMR1031 or vehicle control only: 0.2% Hydroxypropyl Methylcellulose) started 7 days after immunization, before the first EAE symptoms appeared.”
(§8) Treatment IVL984 or HMR1031 or vehicle control only: 0.2% Hydroxypropyl Methylcellulose) started 7 days after immunization, before the first EAE symptoms appeared.
as §4, §5, §6, §7
Taqman primers were ordered for the EST with the accession number AA571535 (EST AA571535 (sequence for the EST: SEQ ID NO 18). Primers for the real time Taqman PCR studies were chosen using Primer Express software (Perkin Elmer) and synthesized by Sigma Genosys. The sequences of the forward and reverse primers were AGCAGCCATGGGAGGCA (SEQ ID NO: 19) and TCCGTTTCCCCACAGCAC (SEQ ID NO: 20) respectively. PCR product was run on the 4% agarose gel to confirm presence of a single band. PCR reactions were run on ABI Prizm System 7700 sequence detector (Perkin-Elmer) using CybrGreen PCR Core Reagents Kit (Perkin-Elmer) according to the manufacturer's protocol. […] The results were normalized to 18S and expressed as logarithm base 2 of copy number difference with18S RNA levels. […]

[1] = test system: M. musculus mRNA for macrophage mannose receptor; test: Taqman analysis of macrophage mannose receptor mRNA in brain and spleen of treated EAE mice
Description: as §1, §2
as §3, with “respectively.” for “respectively. Treatment IVL984 or HMR1031 or vehicle control only: 0.2% Hydroxypropyl Methylcellulose) started 7 days after immunization, before the first EAE symptoms appeared.”
as §8, §4, §5
Brain was divided into two halves and each half was placed in a steril 1.5 ml tube. 0.5 ml TRIzol was added to each tube and the tissue was homogenized using a hand held tissue homogenizer. After homogenization, another 0.5 ml of TRIzol was added to each tube and the samples were incubated for 5 minutes at room temperature to permit complete dissociation of nucleoprotein complexes.
0.2 ml of Chloroform (Sigma) was added to each tube and vortexed. Samples were incubated for an additional 5 minutes at room temperature and then centrifuged at 12,000×g for 15 minutes at 4° C.
The upper aqueous phase was transferred into a fresh, steril tube and the two sample halves per mouse were combined. 0.5 ml isopropylalcohol was added to each combined sample, vortexed and incubated at room temperature for 10 minutes. The samples were then centrifuged at 12,000×g at 4° C. […]
as §7
Taqman primers were ordered for Mus musculus mRNA for macrophage mannose receptor (Accession number: Z11974). […] The results were normalized to 18S and expressed as logarithm base 2 of copy number difference with 18S RNA levels. […]

[2] = EAE mice, 50 mg/kg q.d. s.c. for 14 days from day 7, brain, vs vehicle control
[3] = EAE mice, 50 mg/kg q.d. s.c. for 14 days from day 7, spleen, vs vehicle control
[4] = bodily samples of treated EAE mice, tissue not given

## COc1cc(CC(=O)Nc2ccc([C@@H](CC(=O)O)NC(=O)CCCC(=O)O)cc2)ccc1NC(=O)Nc1ccccc1C [IVL 984]
JAB or SOCS-1 protein
  levels of JAB or SOCS-1 protein: decreased levels of expression on the protein level
EST AA154371; [2]
  EST AA 154371, Brain: ✓ (Statistically significant decrease in macrophage mannose receptor mRNA or protein levels with a 5% or lower probability rate in treated mice compared to vehicle control mice.)
EST AA154371; [3]
  EST AA 154371, Spleen: ✓ (Statistically significant decrease in macrophage mannose receptor mRNA or protein levels with a 5% or lower probability rate in treated mice compared to vehicle control mice.)
EST AA154371; EAE mice, brain samples
  EST AA154371 mRNA levels in comparison to vehicle control mice: statistically significant lower
EST AA154371; [4]
  levels of the genetic marker EST AA154371: decreased levels of expression
EST AA571535; [2]
  EST AA 571535, Brain: — (The changes in mRNA levels are statistically significant at a probability rate of higher than 15% (not significant).)
EST AA571535; [3]
  EST AA 571535, Spleen: — (The changes in mRNA levels are statistically significant at a probability rate of higher than 15% (not significant).)
EST AA571535; EAE mice, brain samples
  EST AA571535 mRNA levels in comparison to vehicle control mice: statistically significant lower
EST AA571535; [4]
  levels of the genetic marker EST AA571535: decreased levels of expression
[1]; [2]
  Macrophage mannose receptor, Brain: Tendency (The decrease in macrophage mannose receptor mRNA levels is a statistically significant, a probability rate of 5-15%.)
[1]; [3]
  Macrophage mannose receptor, Spleen: — (The changes in mRNA levels are statisically significant at a probability rate of higher than 15% (not significant).)
[1]; EAE mice, brain samples
  macrophage mannose receptor mRNA levels in comparison to vehicle control mice: statistically significant lower
[1]; [4]
  levels of the genetic marker macrophage mannose receptor mRNA: decreased levels of expression
